Measurements taken from patent publication USRE34387E, “Method for restoring depleted purine nucleotide pools” (priority 1988, dated 1993).

Legend:
[1] = biological target: T1, adenylosuccinate lyase (cardiac muscle) (Mus musculus, UniProt P54822); details: bifunctional enzyme; cited from earlier work
T1 construct: the hearts and gastrocnemius muscles were excised, weighed, and homogenized to a slurry; from tissue; host or cells: mouse heart (C57BL/6J), dialyzed 10,000×g supernatant
T1 sequence (P54822 2-484 limits assumed): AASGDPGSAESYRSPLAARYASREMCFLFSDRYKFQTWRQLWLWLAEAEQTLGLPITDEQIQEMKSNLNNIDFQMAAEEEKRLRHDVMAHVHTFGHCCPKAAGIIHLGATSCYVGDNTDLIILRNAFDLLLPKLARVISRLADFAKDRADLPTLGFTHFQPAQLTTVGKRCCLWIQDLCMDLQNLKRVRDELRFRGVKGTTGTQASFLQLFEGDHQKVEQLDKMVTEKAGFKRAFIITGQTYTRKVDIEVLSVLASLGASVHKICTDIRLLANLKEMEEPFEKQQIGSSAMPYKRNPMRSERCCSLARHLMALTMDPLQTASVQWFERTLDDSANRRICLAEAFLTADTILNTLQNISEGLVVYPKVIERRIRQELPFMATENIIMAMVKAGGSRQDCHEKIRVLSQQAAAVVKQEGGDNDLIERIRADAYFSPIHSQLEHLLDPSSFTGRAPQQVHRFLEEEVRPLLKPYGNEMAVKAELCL

[2] = tested on: myocardium; assay: Regional myocardial blood flow, coronary occlusion and 24 hr reperfusion; format: in vivo, dogs; details: any time point
Procedure: (§1) Catheters were placed in the left atrium and aorta, and a snare positioned around the left anterior descending coronary artery in 15 open-chest dogs. Regional myocardial blood flow was measured and transmural tissue samples were obtained using known techniques. Blood flow measurements and tissue samples were obtained prior to and just before release of a 12-minute coronary occlusion. The chest was closed and the animals allowed to awaken. Twenty-four hours later, the animals were anesthetized, the chest opened, blood flow measured, and tissue samples obtained. No hemodynamic measurements were made on the animals.
(§2) In seven animals, 200 mM AICAriboside (Sigma Chemical Co.) was infused into the left atrial catether at either 14 μmol/min (n=2) or 37 μmol/min (n=5) beginning with coronary occlusion and continuing for 24 hours. Eight control animals were infused with an equal volume of saline over 24 hours.
(§3) All comparisons between AICAriboside and saline treated animals were done by unpaired analyses.

[3] = tested on: cardiovascular system; design: species or system adult mongrel dogs; details: dog, in vivo
Procedure: (§4) Animal Preparation--Seven adult mongrel dogs were anesthetized intramuscularly with 40 mg of morphine sulfate and intravenously with 80 mg/kg of chloralose, an endotraceal tube was inserted, and ventilation was maintained with an Emerson volume-cycled respirator and 100% oxygen. The heart was exposed through a left lateral thoracotomy, polyvinyl chloride catheters (3-mm outer diameter) were inserted into the left atrium and into the aorta through the right femoral artery, and a Statham TTQ electromagnetic flow meter probe was positioned around the ascending aorta. The aortic pressure catheter was connected to a Statham P23 Db transducer (Statham Instruments, Inc., Oxnard, Calif.) with the zero reference at the midchest level. Aortic flow was measured with a Howell Instruments Series 1000 Flowmeter, and stroke volume and cardiac output were calculated from the aortic flow measurement. All hemodynamic data were monitored continuously throughout the course of the study. In 5 of the animals, the skin of the left dorsal hindlimb was opened and the gastrocnemius muscle was identified for subsequent tissue sampling.
After hemodynamic parameters had stabilized, regional myocardial blood flow was measured by injecting radioactively labled microspheres. Tissue samples were obtained from the left ventricle and from the left gastrocnemius muscle. A venous blood sample was also obtained. AICAriboside (100 mM) was then infused into the left atrium at 1.9 ml/min. Repeat tissue samples were taken from the left ventricle at 15, 30 and 42 min. of infusion, and tissue samples were taken from the gastrocnemius muscle at 30 min. of infusion. Venous and arterial blood samples were also obtained at 42 min. of infusion, and regional myocardial blood flow was measured at 10 and 39 min. of AICAriboside infusion. AICAriboside infusion was terminated after 42 min., and tissue samples were taken from the left ventricle at 10, 20, 30 and 60 min. postinfusion and from the left gastrocnemius muscle at 2,22 and 60 min. postinfusion. Venous blood samples were obtained at 10, 30 and 60 min. after AICAriboside infusion. In 4 of the 7 dogs, 400 mM formate was infused intravenously at the rate of 1.9 ml/min. for 42 min. prior to and during AICAriboside infusion. These same animals also received 6 mg of folinic acid as an intravenous bolus 30 min. prior to and 15 min. after initiating AICAriboside infusion.

[4] = Serum urate concentrations after AICAriboside infusion; format: in vivo, adult mongrel dogs; details: following infusion of 8 mmol
Procedure: as §4, with “The aortic pressure catheter was connected to a Statham P23 Db transducer (Statham Instruments, Inc., Oxnard, Calif.) with the zero reference at the midchest level.” left out, “In 5 of the animals, the skin of the left dorsal hindlimb was opened and the gastrocnemius muscle was identified for subsequent tissue sampling.” left out
After hemodynamic parameters had stabilized, regional myocardial blood flow was measured by injecting radioactively labled microspheres. […] Venous and arterial blood samples were also obtained at 42 min. of infusion, and regional myocardial blood flow was measured at 10 and 39 min. of AICAriboside infusion. […]
Other Methods--Serum urate was determined by the enzymatic spectrophotometric method as previously described in Liddle et al., J. Lab. […]

[5] = tested on: skeletal muscle (gastrocnemius); assay: Purine metabolism in skeletal muscle during and after AICAriboside infusion
[6] = tested on: postischemic myocardium; assay: Nucleotide and creatine phosphate content in postischemic myocardium; format: in vivo, dogs
Procedure: as §1, §2
Nucleotide and creatine phosphate analyses were performed by high performance liquid chromatography on acid extracts of the tissue as previously described. Nucleotide analysis is described in Example 1, and creatine phosphate analysis is described in Juengling and Kammermeier, Anal. Biochem., 102, 358-361 (1980).
as §3

[7] = tested on: Cardiac muscle; assay: Purine metabolism in normal cardiac muscle during and after AICAriboside infusion
[8] = tested on: cardiovascular system; details: cited from earlier work; for hemodynamic effects on the cardiovascular system: purine precursors previously used to restore ATP
[9] = biological target: T2, adenylosuccinate lyase (skeletal muscle) (Mus musculus, UniProt P54822); assay: Adenylosuccinate lyase assay, skeletal muscle enzyme; format: biochemical, C57BL/6J mice; details: pH 7.4, 25° C., 4 enzyme preparations, read-out: apparent Km of adenylosuccinate lyase for adenylosuccinate
T2 construct: the hearts and gastrocnemius muscles were excised, weighed, and homogenized to a slurry; from tissue; host or cells: mouse gastrocnemius muscle (C57BL/6J), dialyzed 10,000×g supernatant
T2 sequence (P54822 2-484 limits assumed): T1 sequence (P54822 2-484 limits assumed)
Procedure: (§5) Preparation and Assay of Adenylosuccinate Lyase--Six-week-old C57BL/6J mice were killed, and the hearts and gastrocnemius muscles were excised, weighed, and homogenized to a slurry in 4 volumes of 50 mM Tris-HCl, pH 7.4 at 25° C. containing 1 mM EDTA and 1 mM β-mercaptoethanol in a TenBroeck glass homogenizer. The homogenate was centrifuged at 10,000×g for 15 min and the supernatant was dialyzed against 1,000 volumes of the extraction buffer for 2 h at 4° C. The lyase activity was partially stabilized by the addition of EDTA and β-mercaptoethanol, but some activity was lost even on storage at -70° C.
(§6) The assays were carried out at pH 7.4 were reaction mixtures that contained 50 mM Tris-HCl buffer, 1 mM EDTA, 1mM β-mercaptoethanol, 20 μM adenylosuccinate, and the enzyme extract (protein concentration, 0.13-0.20 mg/ml). The decrease in absorbance at 280 nm was measured using a Gilford recording spectrophotometer. All assays were done at 25° C. and were linear with respect to time of incubation and with the amount of protein in extract added to the assay.
(§7) These are average values for experiments with 4 separate enzyme preparations. The experimental points in the double reciprocal plots were fitted to the best line by the method of least squares with all points being weighted equally.

[10] = biological target: T1, adenylosuccinate lyase (cardiac muscle); assay: Adenylosuccinate lyase assay, cardiac muscle enzyme; format: biochemical, C57BL/6J mice; details: pH 7.4, 25° C., 4 enzyme preparations, read-out: apparent Km of adenylosuccinate lyase for adenylosuccinate
Procedure: as §5, §6, §7

[11] = before, during or after infusion, detection limit 3 nmol/g
[12] = skeletal muscle, infusion and up to 60 min thereafter
[13] = endo, preocclusion (before infusion)
[14] = epi, preocclusion (before infusion)
[15] = myocardial, throughout the study

Structure (SMILES): NC(=O)c1ncn([C@@H]2O[C@H](COP(=O)(O)O)[C@@H](O)[C@H]2O)c1N [AICAR, 5-Amino-4-imidazolecarboxamide Ribotide]
- effect on both lyase activities of adenylosuccinate lyase [1]: inhibited by AICAR

Structure (SMILES): NC(=O)c1ncn([C@@H]2O[C@H](CO)[C@@H](O)[C@H]2O)c1N [AICAriboside, 5-amino-4-imidazolecarboxamide riboside]
- regional flow versus saline group [2]: no differences in regional flow at any time point
- Heart rate [3]: not significantly altered
- aortic systolic and diastolic pressure [3]: not significantly altered
- cardiac output [3]: not significantly altered
- epicardial and endocardial regional blood flow [3]: not significantly altered
- mean serum urate concentration increase [4]: 3.7 fold
- Adenylosuccinate in biopsies [5, 11]: not detectable
- AICAriboside concentration after infusion was stopped ([5]; skeletal muscle): fell rapidly in both tissues
- IMP content rise ([5]; skeletal muscle): 6-7 fold
- creatine phosphate content ([5]; skeletal muscle, 10.6±0.5 μmol/g at beginning): did not vary significantly
- NAD+ content ([5]; skeletal muscle, did not vary throughout infusion): 0.32 ± 0.04 µmol/g
- Adenosine ([5]; skeletal muscle, during infusion): did not increase
- hypoxanthine content [5, 12]: consistently elevated
- inosine content [5, 12]: consistently elevated
- GTP content versus saline ([6]; 24 hours reperfusion, epicardium and endocardium, P<0.003): greater in the AICAriboside group
- epicardial and endocardial ATP content versus saline ([6]; 24 hours reperfusion, previously ischemic region, P<0.001): greater in the AICAriboside group
- GTP content restoration ([6]; 24 hours, saline 82% (epi), 78% (endo) of nonischemic): restored to nonischemic levels
- ATP content increase after reperfusion ([6]; endo, 24 hours, saline group 21%): 63%
- ADP [6, 13]: 0.92 ± 0.03 μmol/g wet wt
- AMP [6, 13]: 0.066 ± 0.007 μmol/g wet wt
- CP (creatine phosphate) [6, 13]: 6.8 ± 0.7 μmol/g wet wt
- CTP [6, 13]: 0.055 ± 0.001 μmol/g wet wt
- IMP [6, 13]: 0.004 ± 0.001 μmol/g wet wt
- NAD [6, 13]: 0.058 ± 0.04 μmol/g wet wt
- UTP [6, 13]: 0.132 ± 0.004 μmol/g wet wt
- ATP content increase after reperfusion ([6]; epi, 24 hours, saline group 2%): 41%
- ADP [6, 14]: 0.87 ± 0.03 μmol/g wet wt
- AMP [6, 14]: 0.064 ± 0.016 μmol/g wet wt
- CP (creatine phosphate) [6, 14]: 7.7 ± 0.6 μmol/g wet wt
- IMP [6, 14]: 0.005 ± 0.002 μmol/g wet wt
- NAD [6, 14]: 0.060 ± 0.02 μmol/g wet wt
- UTP [6, 14]: 0.122 ± 0.005 μmol/g wet wt
- ATP percentage drop during ischemia versus saline ([6]; occlusion): comparable in both groups
- AMP or ADP content versus saline ([6]; postischemic region): no detectable differences
- CTP content versus saline ([6]; postischemic region): no statistically significant differences
- NAD+ content versus saline ([6]; postischemic region): no statistically significant differences
- Total adenine nucleotide content versus saline ([6]; postischemic region): also greater in the AICAriboside group
- UTP content versus saline ([6]; postischemic region): no statistically significant differences
- mean AICAriboside content of cardiac muscle, greater than that of skeletal muscle ([7]; 30 min of infusion): 66%
- uptake by myocardial cells ([7]; Example 1): taken up rapidly by myocardial cells
- Adenylosuccinate in biopsies [7, 11]: not detectable
- time of AICAR peak ([7]; cardiac and skeletal muscle): peaked minutes after AICAriboside infusion was stopped
- IMP content increase ([7]; cardiac muscle): 3-4 fold
- myocardial content of CTP ([7]; cardiac muscle): no detectable change
- adenylate energy charge ([7]; cardiac muscle, 0.929±0.003 before infusion): did not vary during the course of the experiment
- creatine phosphate content ([7]; cardiac muscle, 6.8±0.4 μmol/g at beginning): did not vary significantly
- TAN (total adenine nucleotide) ([7]; cardiac muscle, 20 min postinfusion): 6.70 ± 0.10 μmol/g. wet weight
- Adenosine ([7]; cardiac muscle, during infusion): did not increase
- AICAriboside concentration after infusion was stopped ([7]; cardiac muscle, rate of decline greater than in skeletal): fell rapidly in both tissues
- ADP change ([7]; cardiac tissue, any time point): did not change significantly at any time point
- AMP change ([7]; cardiac tissue, any time point): did not change significantly at any time point
- ATP content (increase to) ([7]; cardiac tissue, from 5.55±0.17, p<0.02): 6.07±0.17 μmol/g , wet weight
- accumulation of AICAriboside-TP ([7]; cardiac versus skeletal muscle): greater in cardiac muscle
- NAD+ content ([7]; heart, did not vary throughout infusion): 0.64 ± 0.01 µmol/g
- hypoxanthine content [7, 15]: only minimally increased
- inosine content [7, 15]: only minimally increased
- distribution from plasma ([7]; similar concentrations in plasma and myocardium): readily diffuses from plasma into the interstitial space and intracellular compartments

Structure (SMILES): Nc1ncnc2c1ncn2[C@@H]1O[C@H](CO)[C@@H](O)[C@H]1O [adenosine]
- hemodynamic status of the animal ([8]; adenosine administration): profound changes
- hemodynamic effects on the cardiovascular system [8]: deleterious hemodynamic effects

Structure (SMILES): O=C(O)C[C@H](Nc1ncnc2c1ncn2[C@@H]1O[C@H](COP(=O)(O)O)[C@@H](O)[C@H]1O)C(=O)O [adenylosuccinate]
- Km [9]: 4.5 ± 1.5 µM
- Km [10]: 2.2 ± 0.3 µM

Structure (SMILES): O=c1[nH]cnc2nc[nH]c12 [hypoxanthine]
- hemodynamic effects on the cardiovascular system [8]: deleterious hemodynamic effects

Structure (SMILES): OC[C@H]1O[C@@H](n2cnc3c(O)ncnc32)[C@H](O)[C@@H]1O [inosine]
- hemodynamic effects on the cardiovascular system [8]: deleterious hemodynamic effects
